This note sets out measurements from patent US20090082203A1, “INSECTICIDAL BIS(SUBSTITUTED PHENYL)-1-{[4-(SATURATED HETEROCYCLYL-SUBSTITUTED)PHENYLMETHYL]- (4-PIPERIDYL)}METHANE DERIVATIVES” (priority 2004, published 2009).

The data set relates to tobacco budworm (Heliothis virescens [Fabricius]). Description: surface-treated diet test against tobacco budworm. The data set is classed as in vivo. Conditions: for Percent Growth Inhibition: inhibition of insect weight relative to untreated controls. The procedure:
Candidate insecticides were evaluated for activity against the tobacco budworm (Heliothis virescens [Fabricius]) in a surface-treated diet test.
In this test one mL of molten (65-70° C.) wheat germ-based artificial diet was pipetted into each well of a four by six (24 well) multi-well plate (ID# 430345-15.5 mm dia.×17.6 mm deep; Corning Costar Corp., One Alewife Center, Cambridge, Mass. 02140). The diet was allowed to cool to ambient temperature before treatment with candidate insecticide.
For a determination of insecticidal activity, solutions of the candidate insecticides were prepared for testing using a Packard 204DT Multiprobe® Robotic System (Packard Instrument Company, 800 Research Parkway, Meriden, Conn. 06450), in which the robot first diluted a standard 50 millimolar DMSO solution of candidate insecticide with a 1:1 water/acetone solution (V/V) in a ratio of 1:7 stock solution to water/acetone. The robot subsequently pipetted 40 microliters of the so-prepared solution onto the surface of the diet in each of three wells in the 24 multi-well plate. The process was repeated with solutions of seven other candidate insecticides. Once treated, the contents of the multi-well plate were allowed to dry, leaving 0.25 millimoles of candidate insecticide on the surface of the diet, or a concentration of 0.25 millimolar. Appropriate untreated controls containing only DMSO on the diet surface were also included in this test.
For evaluations of the insecticidal activity of a candidate insecticide at varying rates of application, the test was established as described above using sub-multiples of the standard 50 millimolar DMSO solution of candidate insecticide. For example, the standard 50 millimolar solution was diluted by the robot with DMSO to give 5, 0.5, 0.05, 0.005, 0.0005 millimolar, or more dilute solutions of the candidate insecticide. In these evaluations there were six replicates of each rate of application placed on the surface of the diet in the 24 multi-well plate, for a total of four rates of application of candidate insecticide in each plate.
In each well of the test plate was placed one second instar tobacco budworm larvae, each weighing approximately five milligrams. After the larvae were placed in each well, the plate was sealed with clear polyfilm adhesive tape. The tape over each well was perforated to ensure an adequate air supply. The plates were then held in a growth chamber at 25° C. and 60% relative humidity for five days (light 14 hours/day).
After the five-day exposure period insecticidal activity for each rate of application of candidate insecticide was assessed as percent inhibition of insect weight relative to the weight of insects from untreated controls, and percent mortality when compared to the total number of insects infested.
The test compounds of formula I are identified by numbers that correspond to those in Table 1.

Where [1] appears, read: 0.25 millimolar on the surface of the diet, second instar larvae, five-day exposure, compared to the total number of insects infested.
[2] abbreviates: 0.25 millimolar on the surface of the diet, second instar larvae, five-day exposure.

Structures are written as SMILES.

On to `C[C@H]1OC(c2ccc(CN3CCC(C(O)(c4ccc(OC(F)(F)F)cc4)c4ccc(OC(F)(F)F)cc4)CC3)cc2)O[C@@H]1C` (relative stereo) [Compound 120], for which the “Percent Mortality” value under setting [1] is 100%. Under setting [2], the “Percent Growth Inhibition” value stood at 100%.
In the case of `C[C@H]1OC(c2ccc(C[N+]3([O-])CCC(C(O)(c4ccc(OC(F)(F)F)cc4)c4ccc(OC(F)(F)F)cc4)CC3)cc2)O[C@@H]1C` (relative stereo) [Compound 124], the “Percent Mortality” value under setting [1] was determined as 100%. Also, the “Percent Growth Inhibition” value under setting [2] stood at 100%.
In the case of `[O-][N+]1(Cc2ccc(C3O[C@@H]4CCCC[C@H]4O3)cc2)CCC(C(O)(c2ccc(OC(F)(F)F)cc2)c2ccc(OC(F)(F)F)cc2)CC1` (relative stereo) [Compound 128], the “Percent Mortality” value under setting [1] is 100%. The “Percent Growth Inhibition” value under setting [2] is 100%.
With `OC(c1ccc(OC(F)(F)F)cc1)(c1ccc(OC(F)(F)F)cc1)C1CCN(Cc2ccc(C3OCCO3)cc2)CC1` [Compound 1], the “Percent Growth Inhibition” value under setting [2] is 100%. Further, where the note is “in vivo”, the “Percent Mortality” value amounted to 100%.
Turning to `[O-][N+]1(Cc2ccc(C3OCCO3)cc2)CCC(C(O)(c2ccc(OC(F)(F)F)cc2)c2ccc(OC(F)(F)F)cc2)CC1` (stereo not drawn) [Compound 2], under setting [2], the “Percent Growth Inhibition” value came to 100%. Moreover, the “Percent Mortality” value (in vivo) was 100%.
Take `CC1COC(c2ccc(CN3CCC(C(O)(c4ccc(OC(F)(F)F)cc4)c4ccc(OC(F)(F)F)cc4)CC3)cc2)O1` (stereo not drawn) [Compound 3]: the “Percent Mortality” value under setting [1] is given as 100%. Further, the “Percent Growth Inhibition” value under setting [2] was 100%.
Consider `OC(c1ccc(OC(F)(F)F)cc1)(c1ccc(OC(F)(F)F)cc1)C1CCN(Cc2ccc(C3OCCCO3)cc2)CC1` [Compound 4], for which the “Percent Mortality” value under setting [1] worked out at 100%. Also, the “Percent Growth Inhibition” value under setting [2] was determined as 100%.
Turning to `[O-][N+]1(Cc2ccc(C3OCCCO3)cc2)CCC(C(O)(c2ccc(OC(F)(F)F)cc2)c2ccc(OC(F)(F)F)cc2)CC1` (stereo not drawn) [Compound 5], the “Percent Mortality” value under setting [1] came out at 100%. In addition, the “Percent Growth Inhibition” value under setting [2] is on record as 100%.
For `[O-][N+]1(Cc2ccc(C3OCCCCO3)cc2)CCC(C(O)(c2ccc(OC(F)(F)F)cc2)c2ccc(OC(F)(F)F)cc2)CC1` (stereo not drawn) [Compound 7], the “Percent Mortality” value under setting [1] is recorded as 100%. The “Percent Growth Inhibition” value under setting [2] was found to be 100%.
For `CC1(c2ccc(CN3CCC(C(O)(c4ccc(OC(F)(F)F)cc4)c4ccc(OC(F)(F)F)cc4)CC3)cc2)OCCO1` [Compound 8], under setting [1], the “Percent Mortality” value is reported as 100%. The “Percent Growth Inhibition” value under setting [2] was 100%.
For `CC1COC(c2ccc(C[N+]3([O-])CCC(C(O)(c4ccc(OC(F)(F)F)cc4)c4ccc(OC(F)(F)F)cc4)CC3)cc2)O1` (stereo not drawn) [Compound 9], under setting [1], the “Percent Mortality” value was 100%. Further, the “Percent Growth Inhibition” value under setting [2] came to 100%.
For the compound `CC1(c2ccc(CN3CCC(C(O)(c4ccc(OC(F)(F)F)cc4)c4ccc(OC(F)(F)F)cc4)CC3)cc2)OCCCO1` [Compound 11], the “Percent Mortality” value under setting [1] amounted to 100%. Moreover, the “Percent Growth Inhibition” value under setting [2] worked out at 100%.
In the case of `OC(c1ccc(OC(F)(F)F)cc1)(c1ccc(OC(F)(F)F)cc1)C1CCN(Cc2ccc(C3SCCS3)cc2)CC1` [Compound 15], under setting [1], the “Percent Mortality” value was found to be 100%. Under setting [2], the “Percent Growth Inhibition” value turned out to be 100%.
For the compound `OC(c1ccc(OC(F)(F)F)cc1)(c1ccc(OC(F)(F)F)cc1)C1CCN(Cc2ccc(C3OCCS3)cc2)CC1` (stereo not drawn) [Compound 17], under setting [1], the “Percent Mortality” value worked out at 100%. Further, the “Percent Growth Inhibition” value under setting [2] is on record as 100%.
With `CN1CCN(C)C1c1ccc(CN2CCC(C(O)(c3ccc(OC(F)(F)F)cc3)c3ccc(OC(F)(F)F)cc3)CC2)cc1` [Compound 25], the “Percent Mortality” value under setting [1] stood at 100%. The “Percent Growth Inhibition” value under setting [2] is listed as 100%.
With `CC1(C)COC(c2ccc(CN3CCC(C(O)(c4ccc(OC(F)(F)F)cc4)c4ccc(OC(F)(F)F)cc4)CC3)cc2)OC1` [Compound 39], under setting [1], the “Percent Mortality” value is given as 100%. Also, the “Percent Growth Inhibition” value under setting [2] was found to be 100%.
In the case of `OC(c1ccc(OC(F)(F)F)cc1)(c1ccc(OC(F)(F)F)cc1)C1CCN(Cc2ccc(C3OCC4(CC4)CO3)cc2)CC1` [Compound 45], the “Percent Mortality” value under setting [1] was 100%. In addition, under setting [2], the “Percent Growth Inhibition” value stood at 100%.
With `CC1CCOC(c2ccc(CN3CCC(C(O)(c4ccc(OC(F)(F)F)cc4)c4ccc(OC(F)(F)F)cc4)CC3)cc2)O1` (stereo not drawn) [Compound 47], under setting [1], the “Percent Mortality” value is 67%. In addition, under setting [2], the “Percent Growth Inhibition” value is 100%.
In the case of `CCC1COC(c2ccc(CN3CCC(C(O)(c4ccc(OC(F)(F)F)cc4)c4ccc(OC(F)(F)F)cc4)CC3)cc2)O1` (stereo not drawn) [Compound 48], the “Percent Mortality” value under setting [1] worked out at 100%. Further, the “Percent Growth Inhibition” value under setting [2] is listed as 100%.
Regarding `CC(C)(C)C1COC(c2ccc(CN3CCC(C(O)(c4ccc(OC(F)(F)F)cc4)c4ccc(OC(F)(F)F)cc4)CC3)cc2)O1` (stereo not drawn) [Compound 50], under setting [1], the “Percent Mortality” value is given as 100%. The “Percent Growth Inhibition” value under setting [2] worked out at 100%.
As for `COCC1COC(c2ccc(CN3CCC(C(O)(c4ccc(OC(F)(F)F)cc4)c4ccc(OC(F)(F)F)cc4)CC3)cc2)O1` (stereo not drawn) [Compound 51], the “Percent Mortality” value under setting [1] is recorded as 100%. The “Percent Growth Inhibition” value under setting [2] is 100%.
As to `C=CC1COC(c2ccc(CN3CCC(C(O)(c4ccc(OC(F)(F)F)cc4)c4ccc(OC(F)(F)F)cc4)CC3)cc2)O1` (stereo not drawn) [Compound 52], under setting [1], the “Percent Mortality” value was 100%. Besides, under setting [2], the “Percent Growth Inhibition” value amounted to 100%.
As for `OC(c1ccc(OC(F)(F)F)cc1)(c1ccc(OC(F)(F)F)cc1)C1CCN(Cc2ccc(C3OCC(c4ccccc4)O3)cc2)CC1` (stereo not drawn) [Compound 53], under setting [1], the “Percent Mortality” value is 100%. The “Percent Growth Inhibition” value under setting [2] worked out at 100%.
Take `OC(c1ccc(OC(F)(F)F)cc1)(c1ccc(OC(F)(F)F)cc1)C1CCN(Cc2ccc(C3OCCC(c4ccccc4)O3)cc2)CC1` (stereo not drawn) [Compound 55]: under setting [1], the “Percent Mortality” value is reported as 100%. The “Percent Growth Inhibition” value under setting [2] is 100%.
As for `OC(c1ccc(OC(F)(F)F)cc1)(c1ccc(OC(F)(F)F)cc1)C1CCN(Cc2ccc(C3(c4ccccc4)OCCO3)cc2)CC1` [Compound 57], under setting [1], the “Percent Mortality” value is listed as 100%. Besides, the “Percent Growth Inhibition” value under setting [2] is 100%.
With `OC(c1ccc(OC(F)(F)F)cc1)(c1ccc(OC(F)(F)F)cc1)C1CCN(Cc2ccc(C3OCC=CCO3)cc2)CC1` [Compound 58], under setting [1], the “Percent Mortality” value is given as 100%. For the same compound, the “Percent Growth Inhibition” value under setting [2] is listed as 100%.
Turning to `CCCCN1CCSC1c1ccc(CN2CCC(C(O)(c3ccc(OC(F)(F)F)cc3)c3ccc(OC(F)(F)F)cc3)CC2)cc1` (stereo not drawn) [Compound 59], under setting [1], the “Percent Mortality” value came to 100%. In addition, the “Percent Growth Inhibition” value under setting [2] turned out to be 100%.
`[O-][N+]1(Cc2ccc(C3OCC(c4ccccc4)O3)cc2)CCC(C(O)(c2ccc(OC(F)(F)F)cc2)c2ccc(OC(F)(F)F)cc2)CC1` (stereo not drawn) [Compound 60]: under setting [1], the “Percent Mortality” value stood at 100%. Moreover, the “Percent Growth Inhibition” value under setting [2] worked out at 100%.
For `COCC1COC(c2ccc(C[N+]3([O-])CCC(C(O)(c4ccc(OC(F)(F)F)cc4)c4ccc(OC(F)(F)F)cc4)CC3)cc2)O1` (stereo not drawn) [Compound 61], under setting [1], the “Percent Mortality” value came to 100%. Under setting [2], the “Percent Growth Inhibition” value amounted to 100%.
For the compound `CCC1COC(c2ccc(C[N+]3([O-])CCC(C(O)(c4ccc(OC(F)(F)F)cc4)c4ccc(OC(F)(F)F)cc4)CC3)cc2)O1` (stereo not drawn) [Compound 62], the “Percent Mortality” value under setting [1] is 100%. Besides, the “Percent Growth Inhibition” value under setting [2] worked out at 100%.
